Data: patent US20260306492A1 (BRISTOL-MYERS SQUIBB COMPANY, priority 2023, published 2026)

Key:
[1] = test system: participants with non-lacunar, non-cardioembolic ischemic stroke or TIA; assay: AXIOMATIC-SSP Phase 2, efficacy (ischemic stroke / covert brain infarction); format: in vivo, human
[2] = Bleeding in AXIOMATIC-TKR and AXIOMATIC-SSP; format: in vivo, human
Excerpt: […]. […] […]. […] […].

[3] = test system: participants undergoing primary unilateral elective TKR surgery; assay: Total venous thromboembolism (VTE) in TKR patients, AXIOMATIC-TKR; format: in vivo, human
[4] = Milvexian clinical program, adverse drug reactions; format: in vivo, human; conditions: milvexian clinical development program
Excerpt: […]. […] […]. Milvexian in the two Phase II clinical trials (AXIOMATIC-TKR and AXIOMATIC-SSP) focused on different patient populations.

[5] = test system: intrinsic and final common pathways of the coagulation cascade (aPTT); assay: Activated partial thromboplastin time (aPTT), AXIOMATIC-TKR Phase II; format: in vivo, human; conditions: 25-200 mg QD/BID
Excerpt: As used herein, the term “activated partial thromboplastin time (aPTT)” refers to a measure of the intrinsic and final common pathways of the coagulation cascade. It represents the time, in seconds, for plasma to clot after addition of phospholipid, an intrinsic pathway activator, and calcium. […] The term ‘partial’ means phospholipid is present but no tissue factor. The normal and reference ranges vary depending on reagent and instrument combinations, particularly with the phospholipid composition.
In some embodiments, aPTT is measured as follows: Plasma samples are incubated with Actin FS aPTT assay reagent containing a standard amount of phospholipid and contact activator (ellagic acid) which activates the intrinsic coagulation pathway. After incubating for 3 minutes, calcium chloride is added to initiate coagulation and formation of a fibrin clot is measured optically. The time to clot formation (measured in seconds) is reported as the Activated Partial Thromboplastin Time (aPTT).
Assessment of the dose-response for the occurrence of any bleeding was a secondary objective.
(§1) PD analyses were performed on the PD analysis set, defined as subjects who had at least one valid blood sample drawn for PD. Descriptive statistics (N, mean, SD, median, range, CV (%) and IQ range) were used to summarize PD response at each nominal sampling time point by treatment group. Changes from baseline were summarized when applicable. PD response outside of limit of quantitation were not to be imputed and were to be noted in the summary statistics.

[6] = test system: thrombin generation; assay: Thrombin Generation Assay (TGA), AXIOMATIC-TKR Phase II; format: in vivo, human; conditions: 25-200 mg QD/BID
Excerpt: As used herein, “Thrombin Generation Assay (TGA)” is a global coagulation assay that evaluates the thrombogenic capacity of a plasma sample and has been proposed that it may better reflect prothrombotic or hemorrhagic states than conventional clotting assays. In the traditional TGA, coagulation of citrated plasma is initiated through the extrinsic pathway by adding tissue factor, phospholipids, and calcium. For this study, in the in-vitro thrombin generation assay (TGA) using human platelet-rich plasma, and a kaolin slurry was used instead to initiate coagulation through the contact activation pathway. Thrombin generation is continuously monitored through the product released by cleavage of a thrombin-specific fluorogenic substrate. The generated thrombogram is used to determine several relevant parameters, including endogenous thrombin potential, defined as the area under the thrombin concentration vs. time curve. […]
as §1

[7] = Steady-state plasma pharmacokinetics of milvexian 100 mg BID
[8] = Milvexian plasma pharmacokinetics, AXIOMATIC-TKR Phase II
Excerpt: (AXIOMATIC-TKR Phase II). […] Assessment of the dose-response for the occurrence of any bleeding was a secondary objective.

[9] = Milvexian pharmacokinetics in humans (healthy volunteers / terminal half-life)
Excerpt: (AXIOMATIC-TKR Phase II). […] “Half-life (t1/2),” as used herein, refers to apparent terminal elimination half-life having a mean value calculated using formula t1/2=loge2/λz, where λz is the apparent terminal elimination rate-constant estimated by linear regression using the terminal log-linear phase of the logarithmic (log) transformed concentration vs time data.

[10] = Thorough QT (TQT) study in healthy adults; format: in vivo, human; conditions: for ΔΔQTcF, highest upper limit of 2-sided 90% CI: Day 1 and Day 4
Protocol: Pharmacokinetic analysis was performed on the plasma concentrations of each participant.

[11] = test system: participants with non-lacunar, non-cardioembolic ischemic stroke or TIA; assay: AXIOMATIC-SSP Phase 2, safety (bleeding, adverse events)
[12] = 100 mg BID on top of standard care antiplatelet therapy

C[C@@H]1CCC[C@H](n2cnc(-c3cc(Cl)ccc3-n3cc(Cl)nn3)cc2=O)c2cc(ccn2)-c2c(cnn2C(F)F)NC1=O [Milvexian, (5R,9S)-9-(4-(5-chloro-2-(4-chloro-1H-1,2,3-triazol-1-yl)phenyl)-6-oxopyrimidin-1 (6H)-yl)-2^1-(difluoromethyl)-5-methyl-2^1H-3-aza-1 (4,2)-pyridina-2 (5,4)-pyrazolacyclonaphan-4-one]
dose-response for primary composite efficacy endpoint ([1]; 25 mg QD to 200 mg BID, symptomatic ischaemic stroke and incident covert brain infarction): no significant dose-response
symptomatic ischaemic strokes ([1]; all doses except 200 mg BID, pre-specified secondary analysis): numerically fewer symptomatic ischaemic strokes
incident covert brain infarcts versus placebo ([1]; milvexian doses): no effect compared to placebo
fatal bleeding ([2]; AXIOMATIC-TKR / AXIOMATIC-SSP): No fatal bleeding
symptomatic intracranial hemorrhage ([2]; AXIOMATIC-TKR / AXIOMATIC-SSP): no increases in symptomatic intracranial hemorrhage
dose-response for bleeding events ([2]; AXIOMATIC-TKR and AXIOMATIC-SSP): No dose-response relationship
VTE reduction versus enoxaparin ([3]; 50 mg twice daily): superior to enoxaparin
VTE prevention versus enoxaparin 40 mg once daily ([3]; 50-200 mg twice daily): superior to enoxaparin 40 mg once daily
reduction in total VTE versus enoxaparin ([3]; each total daily dose regimen ≥100 mg): statistically significant reductions in total VTE compared to enoxaparin
serious bleeding assessed as adverse drug reactions [4]: gastrointestinal bleeding, procedural hemorrhage, nervous system disorder bleeding (hemorrhagic transformation of ischemic stroke and subdural hematoma) and hematuria
aPTT dose dependence [5]: dose related increase in aPTT
lag time dose dependence [6]: dose related prolongation in the lag time
peak thrombin and area under the curve (total thrombin generation) [6]: dose related reductions in peak thrombin and area under the curve
peak thrombin generation dose dependence [6]: clear and robust dose dependent reduction in peak thrombin generation
steady state Cmax, mean (std) ([7]; 100 mg BID as monotherapy): 1760 (566) ng/ml
steady state AUC0-24, mean (std) ([7]; 100 mg BID as monotherapy): 36200 (12900) ng*h/mL
steady state Cmax, mean (std) [7, 12]: 1670 (536) ng/mL
steady state AUC0-24, mean (std) [7, 12]: 35000 (12100) ng*h/mL
Tmax ([8]; Day 4, 25 mg twice daily): approximately 2 hours
Tmax ([8]; Day 4, 50 mg once daily): approximately 4 hours
Tmax ([8]; human, in vivo, po, 100 mg): ~2 h
Tmax ([8]; human, in vivo, po, 200 mg): ~4 h
observed concentration, Day 4 12 hours after dosing ([8]; in vivo): higher
observed concentration, Day 7 12 hours after dosing ([8]; in vivo): lower
time to steady state of mean trough plasma concentrations ([8]; in vivo): approximately 4 Day
median Tmax ([9]; healthy volunteers, twice daily): approximately 3 hours
terminal plasma half-life (T1/2) ([9]; human, oral): 13 to 16 h
ΔΔQTcF, highest upper limit of 2-sided 90% CI ([10]; 100 mg milvexian): 5.16 ms
ΔΔQTcF at milvexian Tmax, upper limit of 90% CI ([10]; 100 mg twice daily): below 10 ms
ΔΔQTcF, highest upper limit of 2-sided 90% CI ([10]; 200 mg milvexian): 4.57 ms
ΔΔQTcF at milvexian Tmax, upper limit of 90% CI ([10]; 200 mg twice daily): below 10 ms
safety and tolerability ([10]; multiple doses of 100 and 200 mg, healthy adults): generally safe and well tolerated
QT/QTc interval prolongation ([10]; therapeutic (100 mg) and supratherapeutic (200 mg) doses): does not show evidence of QT/QTc interval prolongation of clinical or regulatory concern
rate of major bleeding versus placebo ([11]; 25 mg once daily and twice daily): the same as for placebo
major bleeding (BARC Type 3/5) ([11]; 50 mg twice daily and above): Moderate increases in major bleeding
renal serious and non-serious adverse events leading to discontinuation ([11]; 200 mg twice daily): higher rate
study drug discontinuations for adverse events ([11]; 200 mg twice daily): highest rate of study drug discontinuations for adverse events
ISTH major and CRNM bleeding, and all bleeding ([11]; all milvexian doses): increases in ISTH major and CRNM bleeding (mainly driven by CRNM), as well as all bleeding
intracranial haemorrhage or symptomatic haemorrhagic transformation of brain infarction (modified BARC type 3c) versus placebo ([11]; all milvexian doses): no increase
fatal bleeding (BARC type 5) ([11]; in the study): no fatal bleeding
dose-response for major bleeding ([11]; main composite safety endpoint): no significant dose-response
incidence of major bleeding ([11]; trial population): 1-2%
